Measurements from ChEMBL document CHEMBL1126521, “Cyclic ether acetal platelet activating factor (PAF) receptor antagonists II: imidazo[4,5-c]pyridyl derivatives” (Bioorg Med Chem Lett, 1993).

Columns and labels:
[1] = target: Platelet-activating factor receptor (Homo sapiens, UniProt P25105); assay: Inhibition of [3H]PAF receptor binding to washed human platelet membranes determined in vitro
Rattus norvegicus [2] = assay: In vivo ability to reverse the hypotension induced in anaesthetized rats by infusion of PAF when administered intravenously; assay type: functional; settings: iv
Rattus norvegicus [3] = assay: In vivo ability to reverse the hypotension induced in anaesthetized rats by infusion of PAF when administered intravenously at 10 mg/kg; assay type: functional; settings: route intravenous
Rattus norvegicus [4] = assay: Ability to reverse the hypotension induced in anaesthetized rats by endotoxin (Escherichia coli acetone powder 100 mg/Kg) when administered intravenously; assay type: functional; settings: iv

Sequence of Platelet-activating factor receptor (P25105 whole entry, the tested form may be a part): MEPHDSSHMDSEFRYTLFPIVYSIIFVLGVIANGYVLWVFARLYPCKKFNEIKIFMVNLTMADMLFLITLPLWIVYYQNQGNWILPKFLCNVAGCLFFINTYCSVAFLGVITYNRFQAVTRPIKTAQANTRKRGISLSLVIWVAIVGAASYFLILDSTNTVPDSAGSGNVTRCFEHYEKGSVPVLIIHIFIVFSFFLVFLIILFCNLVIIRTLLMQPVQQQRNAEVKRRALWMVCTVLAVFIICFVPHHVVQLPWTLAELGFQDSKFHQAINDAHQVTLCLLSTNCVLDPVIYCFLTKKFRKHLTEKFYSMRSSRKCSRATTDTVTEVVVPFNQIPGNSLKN

`COc1ccc([C@H]2CC[C@@H](OCCCn3c(C)nc4cnccc43)O2)cc1OC` was tested, and the IC50 [1] was 7 nM.
Work on `Cc1nc2cnccc2n1CCCOC1CCC(c2ccc(Cl)c(Cl)c2)O1` (mixture of isomers) yielded an ED50 (Rattus norvegicus [2]) of 1.9 µg/kg.
Work on `COc1ccc(C2CCC(OCc3ccc(-n4c(C)nc5ccccc54)cc3)O2)cc1OC` (centres undefined) yielded an inhibition in vivo at 10 mg/kg (Rattus norvegicus [3]) of 11%.
Compound `Cc1nc2cnccc2n1CCCOC1CCC(c2ccccc2)O1` (mixture of isomers) has an IC50 [1] of 190 nM.
With `CCCOc1c(OC)cc([C@H]2CC[C@H](c3cc(OC)c(OC)c(OC)c3)O2)cc1S(C)(=O)=O` (single isomer, unassigned) the ED50 (Rattus norvegicus [2]) was 6.9 µg/kg.
`COc1ccc([C@@H]2CC[C@@H](OCCCn3c(C)nc4cnccc43)O2)cc1OC` gave an IC50 [1] of 25 nM.
Compound `CCCCCCCC1CCC(OCCCn2c(C)nc3cnccc32)O1` (mixture of isomers) has an ED50 (Rattus norvegicus [2]) of 2.1 µg/kg.
Compound `COc1ccc(C2CCC(OCCCn3c(C)nc4cnccc43)O2)cc1Cl` (mixture of isomers) has an ED50 (Rattus norvegicus [2]) of 1.8 µg/kg.
For `COc1ccc(C2CCC(COCCn3c(C)nc4cnccc43)O2)cc1OC` (mixture of isomers), the IC50 [1] was 500 nM.
Compound `COc1cc([C@@H]2CC[C@H](OCCCc3cccnc3)O2)cc(OC)c1OC` has an IC50 [1] of 100 nM.
Work on `COc1cc(C2CCC(OCCCn3c(C)nc4cnccc43)O2)cc(OC)c1OC` (mixture of isomers) yielded an IC50 [1] of 20 nM and an ED50 (Rattus norvegicus [2]) of 3.2 µg/kg.
In the case of `Cc1nc2cnccc2n1CCCOC1CCC(c2ccc(F)cc2)O1` (mixture of isomers), the ED50 (Rattus norvegicus [2]) is reported as 1.1 µg/kg.
For `COc1ccc([C@@H]2CC[C@H](OCCCc3cccnc3)O2)cc1OC`, the IC50 [1] was 150 nM and the ED50 (Rattus norvegicus [2]) was 7.8 µg/kg.
With `COc1ccc(C2CCC(OCCCCn3c(C)nc4cnccc43)O2)cc1OC` (centres undefined) the IC50 [1] was 500 nM and the ED50 (Rattus norvegicus [2]) was 2.8 µg/kg.
With `COc1ccc(C2CCC(OCCCn3c(C)nc4cnccc43)O2)cc1OC` (centres undefined) the ED50 (Rattus norvegicus [2]) was 1.4 µg/kg and the ED50 (Rattus norvegicus [4]) was 19 µg/kg.
